Results: US5888405A, “Methods for controlling biofouling using amino methyl phosphonic acids” (Buckman Laboratories International Inc., priority 1997, dated 1999)
Values joined by “and” are separate entries in the source; they are usually repeats but may differ in a detail not shown here. Equal values may be shown once. Read-outs that look alike come from different tables or passages of the source.

Experiments:
Format in all cases: cell-based
[1] = system: E. Aerogenes; test: Minimum inhibitory concentration, 18 hour Basal Salts test; conditions: for MIC: Klebsiella aerogenes, 18 h
Description: ^1 Minimum inhibitory concentration (MIC) for each compound against
the bacteria E. Aerogenes using an 18 hour Basal Salts test at pH 6 and p

[2] = system: Bacteria of the genera Bacillus, Flavobacterium, and Pseudomonas; test: Bacterial adhesion to submerged slides in bioreactor, Gram Crystal Violet staining, visual biofilm score (Example 3); design: scale not given here; conditions: 100 ppm, acetone, 3 days, pH 7, average of four replicates, control 3-4
From the text: (§1) The following method effectively defines the ability of a chemical compound to inhibit bacterial adhesion, or attack the formation of existing attached microorganisms, on various types of surfaces. As an overview, bioreactors were constructed in which approximately 1 in.×3 in. slides (glass or stainless steel) were fixed to the edge of the bioreactor. The lower ends (approx. 2 in.) of the slides dipped into a bacterial growth medium (pH 7) within the bioreactor which contained a known concentration of the test chemical. Following inoculation with known bacterial species, the test solutions were stirred continuously for 3 days. Unless otherwise indicated in the results below, the medium within the bioreactor was turbid by the end of three days. […] A staining procedure was then used on the slides in order to determine the amount of bacteria attached to the surfaces of the slides.
(§2) The bioreactors comprised a 400 ml glass beaker over which a lid (cover from a standard 9 cm diameter glass petri dish) was placed. With the lid removed, slides of the material of choice were taped at one end with masking tape and suspended inside the bioreactor from the top edge of the beaker. This allows the slides to be submerged within the test medium. Typically, four slides (replicates) were uniformly spaced around the bioreactor. The score presented below are the average of the four replicates. A magnetic stirring bar was placed in the bottom of the unit, the lid positioned, and the bioreactor autoclaved. Two different types of material were used as slides, stainless steel as a metal and glass as a hydrophilic surface.
(§3) The liquid medium utilized in the bioreactors was described previously by Delaquis, et al., "Detachment Of Pseudomonas fluorescens From Biofilms On Glass Surfaces In Response To Nutrient Stress", Microbial Ecology 18:199-210, 1989. The composition of the medium was:
(§4) The medium was autoclaved and then allowed to cool. If a sediment formed in the autoclaved medium, the medium was resuspended by shaking before use.
(§5) Bacteria of the genera Bacillus, Flavobacterium, and Pseudomonas were isolated from a paper mill slime deposit and maintained in continuous culture. The test organisms were separately streaked onto plate count agar and incubated at 30° C. 24 hours. With a sterile cotton swab, portions of the colonies were removed and suspended in sterile water. The suspensions were mixed very well and were adjusted to an optical density of 0.858 (Bacillus), 0.625 (Flavobacterium), and 0.775 (Pseudomonas) at 686 nm.
(§6) Biofilm Production/Chemical Testing: To four separate bioreactors was added 200 ml of the sterile medium prepared above. Chemicals to be evaluated as biodispersants were first prepared as a stock solution (40 mg/2 ml) using either water or a 9:1 acetone:methanol mixture (ac/MeOH) as a solvent. A 1.0 ml aliquot of the stock solution was added to the bioreactor using moderate, continuous magnetic stirring. This provided an initial concentration of 100 ppm for the test compound. One bioreactor (Control) contains no test compound. Aliquots (0.5 ml) from each of the three bacterial suspensions were then introduced into each bioreactor. The bioreactors were then provided with continuous stirring for three days to allow for an increase in bacterial population and deposition of cells onto the surfaces of the slides.
After the test was completed, the slides were removed from the bioreactors and were positioned vertically to permit air drying. The degree of adhesion of bacteria to the test surface was then estimated using a staining procedure. The slides were briefly flamed in order to fix the cells to the surface, and then transferred for two minutes to a container of Gram Crystal Violet (DIFCO Laboratories, Detroit, Mich.). The slides were gently rinsed under running tap water, and then carefully blotted. The degree of bacterial adhesion was then determined by visual examination and subjective scoring of each slide. […]

[3] = system: Bacteria of the genera Bacillus, Flavobacterium, and Pseudomonas; test: Quantitative method of evaluation of bacterial adhesion (crystal violet absorbance, % IBA), Example 4; conditions: for inhibition at 100 ppm: 168 h; for Score (% IBA), inhibition of bacterial adhesion: 100 ppm
From the text: as §1, §2, §3, §4, §5, §6
The test method, construction of bioreactors, bacterial growth medium, preparation of bacterial inocula, and biofilm/chemical testing are the same as those in EXAMPLE 3.
After 48 h or 168 h (1 week) of incubation at 26°-28° C. the slides were removed from the bioreactors and were positioned vertically to […] using a staining procedure. The slides were briefly flamed in order to fix the cells to the surface, and then transferred for one minute to a container of Gram Crystal Violet (DIFCO Laboratories, Detroit, Mich.). […]

[4] = glass slides, acetone, 168 h incubation at 26-28° C., 50% or greater considered effective
[5] = stainless steel (SS) slides, acetone, 168 h incubation at 26-28° C., 50% or greater considered effective

O=P(O)(O)CN1CCOCC1 [e]
MIC ([1]; pH 8, read-out: Minimum inhibitory concentration (MIC), pH 8): > 500 µg/mL | Score (biofilm score, bacterial adhesion) ([2]; glass slides): 3 | Score (biofilm score, bacterial adhesion) ([2]; stainless steel (SS) slides): 3 and 2.3 | inhibition at 100 ppm ([3]; read-out: Score (% IBA), inhibition of bacterial adhesion, glass slides, acetone, 168 h incubation at 26-28° C., 50% or greater considered effective): 52% | inhibition at 100 ppm ([3]; read-out: Score (% IBA), inhibition of bacterial adhesion, stainless steel (SS) slides, acetone, 168 h incubation at 26-28° C., 50% or greater considered effective): 33%

CCCCCCCCN(CCCCCCCC)CP(=O)(O)O [g, dioctyl amino methyl phosphonic acid]
MIC ([1]; pH 6, pH 6, read-out: Minimum inhibitory concentration (MIC)): > 100 µg/mL | Score (biofilm score, bacterial adhesion) ([2]; glass slides): 2.0 | inhibition at 100 ppm ([3]; glass slides, acetone, 168 h incubation at 26-28° C., 50% or greater considered effective, read-out: Score (% IBA), inhibition of bacterial adhesion): 78% | inhibition at 100 ppm ([3]; stainless steel (SS) slides, acetone, 168 h incubation at 26-28° C., 50% or greater considered effective, read-out: Score (% IBA), inhibition of bacterial adhesion): 67%

butyl amino methyl phosphonic acid
Minimum inhibitory concentration (MIC) ([1]; pH 8): > 500 | Score (% IBA), inhibition of bacterial adhesion [3, 4]: 21 % IBA | Score (% IBA), inhibition of bacterial adhesion [3, 5]: 36 % IBA

decyl amino methyl phosphonic acid
Minimum inhibitory concentration (MIC) ([1]; pH 6): > 100 | Minimum inhibitory concentration (MIC) ([1]; pH 8): > 500 | Score (biofilm score, bacterial adhesion) ([2]; glass slides): 2.25 | Score (biofilm score, bacterial adhesion) ([2]; stainless steel (SS) slides): 1.25 and 2.3 | Score (% IBA), inhibition of bacterial adhesion [3, 4]: 5 % IBA | Score (% IBA), inhibition of bacterial adhesion [3, 5]: 62 % IBA

dodecyl amino methyl phosphonic acid
Minimum inhibitory concentration (MIC) ([1]; pH 6): > 100 | Minimum inhibitory concentration (MIC) ([1]; pH 8): > 500 | Score (biofilm score, bacterial adhesion) ([2]; stainless steel (SS) slides): 3 and 4 | Score (% IBA), inhibition of bacterial adhesion [3, 4]: 43 % IBA | Score (% IBA), inhibition of bacterial adhesion [3, 5]: 54 % IBA

hexyl amino methyl phosphonic acid
Minimum inhibitory concentration (MIC) ([1]; pH 6): > 100 | Minimum inhibitory concentration (MIC) ([1]; pH 8): > 500 | Score (biofilm score, bacterial adhesion) ([2]; glass slides): 3.0 | Score (biofilm score, bacterial adhesion) ([2]; stainless steel (SS) slides): 1.0 and 2.0 | Score (% IBA), inhibition of bacterial adhesion [3, 4]: 36 % IBA | Score (% IBA), inhibition of bacterial adhesion [3, 5]: 42 % IBA

octadecyl amino methyl phosphonic acid [f]
Minimum inhibitory concentration (MIC) ([1]; pH 6): > 100 | Minimum inhibitory concentration (MIC) ([1]; pH 8): > 500 | Score (biofilm score, bacterial adhesion) ([2]; stainless steel (SS) slides): 2.25 and 2.70 | Score (% IBA), inhibition of bacterial adhesion [3, 4]: 81 % IBA | Score (% IBA), inhibition of bacterial adhesion [3, 5]: 39 % IBA
